Measurements from article PMC10179475, “Flavone and Hydroxyflavones Are Ligands That Bind the Orphan Nuclear Receptor 4A1 (NR4A1)” (International Journal of Molecular Sciences, 2023).
“Also recorded” adds a separate entry of the source. Like-named read-outs stand apart in the source and are kept apart here.

Experiments:
[1] = Solubility in the fluorescence assay; format: physicochemical; conditions: aqueous
Description: (§1) Tryptophan fluorescence spectra were obtained essentially as described. Briefly, the ligand-binding domain of NR4A1 at the final concentration of 0.5 µmol/L in 1.0 mL of phosphate-buffered saline (PBS, pH 7.4) was used for fluorescence measurements. The protein was incubated for 3 min at 25 °C in a temperature-controlled (Quantum Northwest TC125) fluorescence spectrophotometer (Varian Cary Eclipse). The fluorescence spectra were obtained using an excitation wavelength of 285 nm (excitation slit width = 5 nm) and an emission wavelength range of 300–420 nm (emission slit width = 5 nm). Aliquots (0.1 µL/aliquot) of the ligand (10 mmol ligand/L ethanol) were then added to the cuvette containing NR4A1 to reach a final ligand concentration of up to 60 µmol/L. After each aliquot of the ligand, the NR4A1/ligand solution was incubated at 25 °C for 3 min and the loss of tryptophan fluorescence was measured as described above. The addition of DMSO only (up to a final volume of 3.0 µL) had no effect on NR4A1 tryptophan fluorescence. […] Fluorescence intensity at each ligand concentration was used to correct the NR4A1 tryptophan fluorescence intensity as described.

[2] = target: NR4A1 protein (ligand-binding domain: LBD) (Homo sapiens, UniProt P22736); assay: Isothermal titration calorimetry (ITC) binding assay;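 further: ligand titrated into 20 µmol/L NR4A1 LBD in sodium phosphate buffer pH 7.4 with glycerol and ethanol, thirty injections, heat flow corrected for ligand-into-buffer dilution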
Chain of NR4A1 protein (ligand-binding domain: LBD) (P22736 360-595 limits assumed): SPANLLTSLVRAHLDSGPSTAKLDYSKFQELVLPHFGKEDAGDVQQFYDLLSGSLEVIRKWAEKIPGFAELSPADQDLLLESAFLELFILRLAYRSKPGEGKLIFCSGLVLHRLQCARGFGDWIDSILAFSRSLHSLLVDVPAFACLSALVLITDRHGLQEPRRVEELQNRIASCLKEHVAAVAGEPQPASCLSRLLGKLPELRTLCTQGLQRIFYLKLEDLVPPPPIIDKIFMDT

[3] = target: ligand-binding domain (LBD) of NR4A1 (Homo sapiens, UniProt P22736); assay: Direct-binding fluorescence assay (quenching of NR4A1 tryptophan fluorescence)
Chain of ligand-binding domain (LBD) of NR4A1 (P22736 360-595 limits assumed): as above
Description: as §1

GAL4-NR4A1 [4] = target: T1, GAL4-NR4A1 (Homo sapiens, UniProt P22736); assay: NR4A1-dependent transactivation, GAL4-NR4A1/UAS-luc, Rh30 cells; format: cell-based; design: expressed in transfected cells; host or cells: Rh30 rhabdomyosarcoma cells; conditions: for effect on NR4A1-dependent transactivation: 50 µM
T1 sequence (P22736 360-595 limits assumed): as above

GAL4-NR4A1 [5] = target: T1, GAL4-NR4A1; assay: NR4A1-dependent transactivation, GAL4-NR4A1/UAS-luc, Panc1 cells; format: cell-based; design: expressed in transfected cells; host or cells: Panc1 pancreatic cancer cells; Rh30 rhabdomyosarcoma cells; conditions: for effect on luciferase activity: 25 or 50 µM, p < 0.05
Description: Figure 3 Hydroxyflavonoid activation of NR4A1-dependent transactivation. Panc1 cells were cotransfected with GAL4-NR4A1 and UAS-luciferase constructs, cells were treated with 25 and 50 µM hydroxyflavonoids and luciferase activity (normalized to β-galactosidase activity) was determined. Results were determined in triplicate for each concentration and are plotted as mean values ±SE. Significant induction or inhibition (p < 0.05) of luciferase activity is illustrated (*).
The UAS-luciferase reporter gene containing 5 GAL4 binding sites and the GAL4-NR4A1 chimera containing the GAL4 DNA-binding domain which linked to the ligand-binding domain (LBD) of NR4A1 were used in transactivation assays in Panc1 pancreatic cancer cells. Panc-1 cells were plated in a 24-well plate (3 × 10^4 cells/well) and grown for 24 h. Cells were then co-transfected with each construct (250 ng) and the β-gal expression construct (25 ng) using GeneJuice (Novagen, Madison, WI, USA) in accordance with the manufacture’s protocol. The medium was removed after 18 h and replaced with a 2.5% charcoal-stripped FBS-supplemented medium containing either DMSO or flavonoids (25 and 50 µM) in DMSO. After 24 h, cells were then lysed, and cell extracts were processed to measure luciferase activity. Luciferase activity was normalized by dividing the β-gal expression and each treatment was determined in three independent experiments. Data were expressed as mean ± SE and significant (p < 0.05) effects were noted.

ERα = system: ERα; design: method as in PMID 18095219; conditions: cited from earlier work
GAL4-NR4A1 [6] = target: T1, GAL4-NR4A1; design: expressed in transfected cells; host or cells: Rh30 rhabdomyosarcoma cells; method as in PMID 34906197; conditions: Rh30 rhabdomyosarcoma cells, same constructs, cited from earlier work
rhabdomyosarcoma tumor = system: rhabdomyosarcoma tumor; design: method as in PMID 34906197; conditions: athymic mouse xenograft model; cited from earlier work
[7] = fluorescence (Trp quenching) assay, Table 1 head prints no unit, µM from text and Figure 5, read-out: KD, direct binding assay
[8] = fluorescent binding assay, read-out: KD (Figure 1)

Row | Structure (SMILES) | ITC assay ΔG ([2]; 25 °C) | Kd ([2]; 25 °C, read-out: ITC assay Kd1) | Kd [3, 7] | effect on NR4A1-dependent transactivation (GAL4-NR4A1 [4]) | effect on luciferase activity (GAL4-NR4A1 [5]) | further results
1 | O=c1c(O)c(-c2ccccc2)oc2ccccc12 [3-Hydroxyflavone] | -10.4 kcal/mol | 0.0225 µM | – | – | – | solubility [1]: insoluble; solubility ([1]; listed as 3-hydroxyflavone): aqueous insolubility
2 | O=c1cc(-c2ccccc2)oc2cc(O)c(O)c(O)c12 [5,6,7 -Trihydroxyflavone (Baicalein), 5,6,7-Trihydroxyflavone] | -9.42 kcal/mol | 0.13 µM | 1.85 µM | – | significantly induced luciferase activity | –
3 | O=c1cc(-c2ccccc2)oc2cc(O)ccc12 [7-Hydroxyflavone] | -10.1 kcal/mol | – | 7.4 µM | – | significantly induced luciferase activity | induction of luciferase activity (GAL4-NR4A1 [4]): < 2.4 fold; induction of luciferase activity (GAL4-NR4A1 [5]): < 2.4 fold; Kd [2]: 0.042 µM
4 | O=c1cc(-c2ccccc2)oc2c(O)c(O)ccc12 [7,8-Dihydroxyflavone] | -10.1 kcal/mol | 0.042 µM | 17.6 µM | – | – | –
5 | O=c1c(O)c(-c2ccc(O)c(O)c2)oc2cc(O)cc(O)c12 | -8.8 kcal/mol | 0.35 µM | 0.81 µM | decreased transactivation | significantly induced luciferase activity | ER binding (ERα): did not bind ERα; effect on luciferase activity / NR4A1-dependent transactivation (previous studies) (GAL4-NR4A1 [6]; listed as quercetin): decreased luciferase activity; also recorded: decreased NR4A1-dependent transactivation; tumor growth (rhabdomyosarcoma tumor): inhibited tumor growth
6 | O=c1c(O)c(-c2ccc(O)c(O)c2)oc2cccc(O)c12 [3,5,3′,4-tetrahydroxyflavone] | – | – | – | potent inhibition | – | –
7 | O=c1c(O)c(-c2ccccc2)oc2cc(O)cc(O)c12 [3,5,7 -Trihydroxyflavone (Galangin), 3,5,7-Trihydroxyflavone] | -12.2 kcal/mol | 0.001 µM | 0.36 µM | potent inhibition | decreased luciferase activity | –
8 | Clc1cc(Cl)cc(C(c2c[nH]c3ccccc23)c2c[nH]c3ccccc23)c1 [DIM-3,5-CI2, 1,1-bis(3′-indolyl)-1-(3,5-dichlorophenyl)methane, reference compound] | – | – | – | decreased transactivation | – | –
9 | O=c1c(O)c(-c2ccc(O)cc2)oc2cc(O)cc(O)c12 [3,5,7,4′-Tetrahydroxyflavone] | -5.47 kcal/mol | 97.1 µM | 3.1 µM | decreased transactivation | – | effect on luciferase activity / NR4A1-dependent transactivation (previous studies) (GAL4-NR4A1 [6]; listed as kaempferol): decreased luciferase activity; also recorded: decreased NR4A1-dependent transactivation; tumor growth (rhabdomyosarcoma tumor): inhibited tumor growth
10 | O=c1cc(-c2ccc(O)cc2)oc2cc(O)ccc12 [7,4’-Dihydroxyflavone] | -8.63 kcal/mol | 0.49 µM | 9.1 µM | – | – | –

Now from value to molecule, other results behind:

Row | ITC assay ΔG ([2]; 25 °C) | Kd ([2]; 25 °C, read-out: ITC assay Kd1) | Kd [3, 7] | effect on NR4A1-dependent transactivation (GAL4-NR4A1 [4]) | Structure (SMILES) | effect on luciferase activity (GAL4-NR4A1 [5]) | further results
11 | -10.3 kcal/mol | 0.032 µM | 12.5 µM | decreased transactivation | O=c1cc(-c2ccccc2)oc2ccc(O)cc12 [6-Hydroxyflavone] | significantly induced luciferase activity | –
12 | -8.53 kcal/mol | 0.57 µM | 1.77 µM | decreased transactivation | O=c1cc(-c2ccc(O)cc2)oc2cc(O)cc(O)c12 [5,7,4′-Trihydroxyflavone (Apigenin), 5,7,4′-Trihydroxyflavone] | – | Kd [3, 8]: 0.08 µM
13 | -9.25 kcal/mol | 0.17 µM | 21.4 µM | – | O=c1cc(-c2cccc(O)c2)oc2cc(O)ccc12 [7,3′-Dihydroxyflavone] | – | –
14 | -9.42 kcal/mol | 0.15 µM | 13 µM | potent inhibition | O=c1cc(-c2ccc(O)cc2)oc2ccccc12 [4′-Hydroxyflavone] | significantly induced luciferase activity | –
15 | -6.86 kcal/mol | 9.5 µM | 0.96 µM | – | O=c1cc(-c2ccc(O)c(O)c2)oc2ccccc12 [3′,4′-Dihydroxyflavone] | – | induction of luciferase activity (GAL4-NR4A1 [4]): < 2.4 fold; induction of luciferase activity (GAL4-NR4A1 [5]): < 2.4 fold
16 | -10.5 kcal/mol | 0.019 µM | 5.1 µM | – | O=c1cc(-c2ccc(O)c(O)c2)oc2cc(O)cc(O)c12 [5,7,3′4′-Tetrahydroxyflavone (Luteolin), 5,7,3′4′-Tetrahydroxyflavone] | significantly induced luciferase activity | –
17 | -6.45 kcal/mol | 18 µM | 1.4 µM | – | O=c1cc(-c2ccccc2)oc2cccc(O)c12 [5-Hydroxyflavone] | – | –
18 | -9.73 kcal/mol | 0.075 µM | 3.4 µM | – | O=c1cc(-c2ccccc2)oc2ccccc12 [Flavone] | – | –
19 | -4.57 kcal/mol | 444 µM | 0.66 µM | potent inhibition | O=c1c(O)c(-c2ccccc2)oc2ccc(O)cc12 [3,6-Dihydroxyflavone] | – | –
20 | -9.2 kcal/mol | 0.18 µM | 2.8 µM | potent inhibition | O=c1c(O)c(-c2ccccc2)oc2cc(O)ccc12 [3,7-Dihydroxyflavone] | – | –
21 | -8.84 kcal/mol | 0.33 µM | 45.8 µM | – | O=c1cc(-c2cccc(O)c2)oc2ccccc12 [3′-Hydroxyflavone] | – | Kd [3, 8]: 45.8 µM
22 | -12.3 kcal/mol | 0.001 µM | 11.3 µM | – | O=c1cc(-c2ccccc2)oc2cc(O)cc(O)c12 [5,7 Dihydroxyflavone] | – | –
